Assay results as given in EP0006532A1, “Lactams, methods for their preparation, and medicaments containing them” (Dr. Karl Thomae GmbH, priority 1978, dated 1980).
Converted amounts (≈) assume the structure as drawn.

Tests used:
[1] = tested on: E. coli des Stammes ATCC 11 775; test: ED50 in intraperitoneal E. coli infection of mice; format: in vivo, Albino-Mäusen vom Stamm NMRI; conditions: Escherichia coli, ATCC11, sc; intraperitoneal E. coli ATCC 11 775 infection, NMRI albino mice, subcutaneous application; treated three times on day 1 (first 1 h after infection), twice daily on 2 further days
Method: Dabei wurde die ED50 der oben genannten Verbindungen 1 und 2 bei einer intraperitonealen E. coli-Infektion an Albino-Mäusen vom Stamm NMRI bestimmt. Am ersten Tag wurde dreimal behandelt (erstmals 1 h nach Infektion) und 2 weitere Tage zweimalig.

[2] = tested on: E.coli 12593/ 74; test: MIC (MHK), agar diffusion and serial dilution test; format: cell-based; conditions: Escherichia coli, read-out: MHK-Werte
From the text: (§1) Die Untersuchungen auf die antibakterielle Wirksamkeit in vitro wurde nach dem Agar-Diffusionstest und nach dem Reihenverdünnungstest in Anlehnung an die von P. Klein in "Bakteriologische Grundlagen der Chemotherapeutischen Laboratoriumspraxis", Springerverlag 1957, Seiten 53 bis 76 und 87 bis 109, beschriebenen Methodik durchgeführt.
(§2) Für D-α-[3-(3,4-Dihydro-3-methyl-2-hydroxy-4-oxo-5- pyrimidyl)-ureido/-p-hydroxybenzyl-penicillin-Natrium (Verbindung 1) und für Natrium-7-{D-α-[3-(3,4-Dihydro-2-hydroxy-3-methyl-4-oxo-5-pyrimidyl)-ureido]-p-hydroxyphenylacetamido}-3-[(1-methyl-tetrazol-5-yl)-thiomethyl]-ceph-3-em-4-carboxylat (Verbindung 2) wurden folgende MHK-Werte gegen einige gramnegative Keime gemessen: […]

[3] = tested on: Klebs. pneum. 272; test: MIC (MHK), agar diffusion and serial dilution test; format: cell-based; conditions: read-out: MHK-Werte
From the text: as §1, §2

[4] = tested on: Proteus mirab.; test: MIC (MHK), agar diffusion and serial dilution test; format: cell-based; conditions: read-out: MHK-Werte
From the text: as §1, §2

[5] = tested on: Pseud.aerug Hbg.; test: MIC (MHK), agar diffusion and serial dilution test; format: cell-based; conditions: read-out: MHK-Werte
From the text: as §1, §2

[6] = tested on: E.coli ATCC 9637; test: MIC (MHK), agar diffusion and serial dilution test; format: cell-based; conditions: Escherichia coli, ATCC9637, read-out: MHK-Werte
From the text: as §1, §2

[7] = tested on: Proteus Vulgaris; test: MIC (MHK), agar diffusion and serial dilution test; format: cell-based; conditions: read-out: MHK-Werte
From the text: as §1, §2

[8] = tested on: Pseud.aerug. ATCC 10145; test: MIC (MHK), agar diffusion and serial dilution test; format: cell-based; conditions: read-out: MHK-Werte
From the text: as §1, §2

[9] = tested on: E.coli ATCC 11775; test: MIC (MHK), agar diffusion and serial dilution test; format: cell-based; conditions: Escherichia coli, ATCC11775, read-out: MHK-Werte
From the text: as §1, §2

[10] = tested on: Ser. marcescens ATCC 13880; test: MIC (MHK), agar diffusion and serial dilution test; format: cell-based; conditions: Serratia marcescens, ATCC13880, read-out: MHK-Werte
From the text: as §1, §2

[11] = tested on: Klebs. pneum. ATCC 10031; test: MIC (MHK), agar diffusion and serial dilution test; format: cell-based; conditions: read-out: MHK-Werte
From the text: as §1, §2

MIC [2] | MIC [3] | MIC [4] | MIC [5] | MIC [6] | MIC [7] | MIC [8] | MIC [9] | MIC [10] | MIC [11] | Structure (SMILES) | ED50 [1]
> 80 µg/mL | 40 to 80 µg/mL (≈ 75.1 to 150 µM) | 1.25 µg/mL (≈ 2.35 µM) | 5 µg/mL (≈ 9.39 µM) | 2.5 µg/mL (≈ 4.69 µM) | 10 µg/mL (≈ 18.8 µM) | 5 µg/mL (≈ 9.39 µM) | 2.5 µg/mL (≈ 4.69 µM) | 2.5 µg/mL (≈ 4.69 µM) | 40 to 80 µg/mL (≈ 75.1 to 150 µM) | Cn1c(O)ncc(NC(=O)N[C@@H](C(=O)N[C@@H]2C(=O)N3[C@@H]2SC(C)(C)[C@@H]3C(=O)O)c2ccc(O)cc2)c1=O [Verbindung 1] | 7 mg/kg
– | – | – | – | – | – | – | – | – | – | Cn1nnnc1SCC1=C(C(=O)[O-])N2C(=O)C(NC(=O)[C@H](NC(=O)Nc3cnc(O)n(C)c3=O)c3ccc(O)cc3)[C@H]2SC1.[Na+] (stereo partly drawn) [Verbindung 2, Natrium-7-{D-α-[3-(3,4-Dihydro-2-hydroxy-3-methyl-4-oxo-5-pyrimidyl)-ureido]-p-hydroxyphenylacetamido}-3-[(1-methyl-tetrazol-5-yl)-thiomethyl]-ceph-3-em-4-carboxylat] | 3.3 mg/kg
5 µg/mL (≈ 7.76 µM) | 2.5 µg/mL (≈ 3.88 µM) | 1.25 µg/mL (≈ 1.94 µM) | 20 µg/mL (≈ 31 µM) | 1.25 µg/mL (≈ 1.94 µM) | 10 µg/mL (≈ 15.5 µM) | 20 to 40 µg/mL (≈ 31 to 62 µM) | 1.25 µg/mL (≈ 1.94 µM) | 10 µg/mL (≈ 15.5 µM) | 1.25 µg/mL (≈ 1.94 µM) | Cn1nnnc1SCC1=C(C(=O)O)N2C(=O)[C@@H](NC(=O)[C@H](NC(=O)Nc3cnc(O)n(C)c3=O)c3ccc(O)cc3)[C@H]2SC1 [Beispiel 2] | –
